# Assay results published in patent US12186304B2, “Method for treating cancer by combination of IAP inhibitor and modulator of immune checkpoint molecule” (ASCENTAGE PHARMA (SUZHOU) CO., LTD., priority 2018, dated 2025).
# What was measured:
# [1] = Phase I study: APG-1387 pharmacokinetics in plasma (LC-MS/MS); format: in vivo, human
# Description: APG-1387 was IV administered for 30 minutes once weekly in a 21-day-cycle.
# [2] = test system: spleen cells; assay: Activation of spleen cells of healthy C57BL/6 mice in vivo; conditions: 0.05, 0.2 and 0.8 mg/kg i.p. qd x 7 doses
# Description: Next, we intraperitoneally administered different dosages of APG-1387 to healthy C57BL/6 mice every day. Each group has 3 mice. After 7 days of continuous administration, the spleen was taken to obtain a single cell suspension. NK, macrophage, dendritic cells and T cells were analyzed by flow cytometry to obtain the proportion of these subsets, thus evaluate the effect of APG-1387 on each immune cell subpopulation.
# [3] = test system: CT26 colorectal cancer; assay: Combination therapy in CT26 mouse colorectal cancer model; format: in vivo; conditions: APG-1387 0.2 mg/kg i.v. once daily, docetaxel 8 mg/kg i.p. once weekly, anti-PD-1 200 μg/mouse i.p. twice weekly
# Description: (§1) Cell inoculation method was used to establish a […] tumor-immunized normal mouse subcutaneous homograft tumor model: tumor cells in logarithmic growth phase were collected, counted, and then resuspended in 1×PBS. The concentration of the cell suspension was adjusted to 2.5-5×10^7/mL. Tumor cells, 5-10×10^6/0.2 mL/mouse, were inoculated subcutaneously in the right back of the immunized normal mouse with a 1 mL syringe ([…]). All animal experimental operations were strictly in accordance with standards for use and management of laboratory animals by Gima Gene Co., Ltd and Suzhou Yasheng Pharmaceutical Co., Ltd. Relevant parameters were calculated with reference to China's NMPA “Guidelines for Non-clinical Research Techniques of Cytotoxic Antitumor Drugs”.
# Animal weight and tumor size were measured twice a week during the experiment. Animals were observed daily for status and the occurrence of death. Routine monitoring included the effects of tumor growth and treatment on the normal behaviors of animals, specifically including the activity, feeding and drinking, weight gain or loss, eyes, clothing hair, as well as other abnormalities of the laboratory animals. The deaths and clinical symptoms observed during the experiment were recorded in the original data. The whole process of administration, measurement of mouse weight and tumor volume was carried out in an ultra-clean bench. According to requirements of the experimental program, plasma and tumor tissue were collected, weighed and photographed for record after the end of last administration. Plasma and tumor samples were frozen at −80° C. for later use.
# (§2) Tumor volume (TV) was calculated as TV=a×b^2/2, wherein a and b represented the length and width of tumor measurement, respectively.
# (§3) Relative tumor volume (RTV) was calculated as RTV=Vt/V1, wherein V1 was the tumor volume at the time of grouping administration, and Vt was the tumor volume measured on day t after administration.
# The evaluation index of anti-tumor activity was relative tumor proliferation rate T/C (%), and was calculated as: relative tumor proliferation rate T/C (%)=(TRTV/CRTV)×100%, wherein TRTV was RTV in treatment group, and CRTV was RTV in vehicle control group.
# Tumor remission rate (%) was the number of SD (stable disease), PR (partial regression) and CR (complete regression) in tumor-bearing mice after treatment divided by the total number of mice in that group×100%. CR refers to the complete regression of the tumor, which means the tumor is inaccessible after treatment. PR refers to the partial regression of the tumor, which means tumor volume becomes smaller than before treatment. SD refers to stable tumor progression, which means tumor volume is the same as before treatment. Change of body weight (%)=(measurement of body weight−body weight when grouping)/body weight when grouping×100%.
# Efficacy evaluation criteria: according to China's NMPA “Guidelines for Non-clinical Research Techniques of Cytotoxic Antitumor Drugs” (November 2006), T/C (%) value 40% and p<0.05 by statistical analysis were considered as efficacious. If the weight loss of mice exceeded 20%, or the drug-related death percentage exceeded 20%, the drug dose was considered to be severely toxic.
# According to Clarke R., Issues in experimental design and endpoint analysis in the study of experimental cytotoxic agents in vivo in breast cancer and other models [J].
# A tumor model of CT26 colorectal cancer mouse was established, and the combined anti-tumor effect of APG-1387 with anti-PD-1 antibody and docetaxel was evaluated on this model. The administration regimen was as follows:
# APG-1387 monotherapy group: 0.2 mg/kg, intravenous injection, once daily for a total of 17 days;
# Docetaxel monotherapy group: 8 mg/kg, intraperitoneal injection, once weekly for a total of 17 days;
# Anti-PD-1 antibody monotherapy group: 200 μg/mouse, intraperitoneal injection, twice weekly for a total of 2.5 weeks (i.e., 17 days); […]
# [4] = test system: advanced or metastatic solid tumor; assay: Phase I study: anti-tumor activity in all tumor types; format: in vivo, human
# [5] = test system: effector memory T cells and NK cells; assay: Lymphocyte analysis (flow cytometry) in MC38 tumor-bearing mice; format: in vivo, mouse; conditions: MC38 model; APG-1387 0.2 mg/kg
# Description: In the experiment of tumor-infiltrated lymphocyte analysis, tissue samples such as spleen, draining lymph node, ascites, tumor or other tissues were collected 24 hours after the last drug administration. A single cell suspension of the spleen and draining lymph nodes was obtained, and the red blood cells were lysed after centrifugation, and the cells were filtered, followed by flow cytometric staining and flow cytometry. The tumor tissue was cut and centrifuged, and the tissue was digested, the cells were filtered. Ficoll was used to separate individual nuclei. Individual nuclei were collected for corresponding antibody flow staining and flow cytometry Ascites samples were collected and centrifuged, and the cells were filtered and subjected to flow cytometry staining and flow cytometry.
# The spleen, draining lymph nodes and tumor tissues of MC38 tumor-bearing mice were collected 24 hours after the last administration. Ascites of ID8-Luc tumor mice, tumor tissues of PLC/PRF/5 tumor mice were subjected to tumor infiltrating lymphocyte analysis. The proportion of lymphocytes in the APG-1387 treatment group and control group was analyzed to explore the potential mechanism of anti-tumor effect of APG-1387 combined with anti-PD-1 antibody.
# [6] = test system: MC38 colon cancer; assay: Tumor growth in MC38 homologous mouse colon cancer model; format: in vivo
# Description: as §1, §2, §3
# The evaluation index of anti-tumor activity was relative tumor proliferation rate T/C (%), and was calculated as: relative tumor proliferation rate T/C (%)=(TRTV/CRTV)×100%, wherein TRTV was RTV in treatment group, and CRTV was RTV in vehicle control group. […]
# [7] = over the range of 20 to 45 mg, preliminary PK data
smiles,measurement,setting,value
CN[C@@H](C)C(=O)N[C@H]1CN(S(=O)(=O)c2cccc(S(=O)(=O)N3CC[C@H]4CC[C@@H](C(=O)NC(c5ccccc5)c5ccccc5)N4C(=O)[C@@H](NC(=O)[C@H](C)NC)C3)c2)CC[C@H]2CC[C@@H](C(=O)NC(c3ccccc3)c3ccccc3)N2C1=O [APG-1387],increase in AUC,[1]; [7],approximately dose proportional
same,increase in Cmax,[1]; [7],approximately dose proportional
same,accumulation,[1]; weekly dosing regimen,no significant accumulation
same,proportion of 9 types of immune cells in the spleen,[2],no effect
same,T/C (%) value on day 18 after administration,[3],105%
same,"DCR (disease control rate, SD above)",[4],6/24
same,"ORR (objective response rate, CR + PR)",[4],0
same,Best response: CR,[4]; patients,0
same,Best response: PD,[4]; patients,15
same,Best response: PR,[4]; patients,0
same,Best response: SD,[4]; patients,6
same,proportion of NK cells in the spleen and lymph nodes,[5],no significant effect
same,RTV on day 14 after administration,"[6]; APG-1387 0.2 mg/kg i.v., anti-PD-1 5 mg/kg i.p., twice weekly, 2 times",11.0 ± 1.2
same,T/C (%) value on day 14 after administration,[6]; day 14,70%
